Results published in patent publication US8013153B2, “Substituted pyrimidine kinase inhibitors” (Janssen Pharmaceutica, N.V., priority 2006, dated 2011).
pIC50: −log10 of the molar value. Entries after “also recorded” stand apart in the source; their conditions may differ.

What was measured:
HER2 cytoplasmic domain = biological target: T1, HER2 cytoplasmic domain (Homo sapiens, UniProt P04626); assay: HER2 Kinase Screening Assay; format: biochemical; details: > means no observed 50% inhibition at the indicated test concentration; ~ means approximately 50% inhibition at that concentration
T1 construct: polyhistidine (N)
T1 sequence (P04626 676-1255 limits assumed): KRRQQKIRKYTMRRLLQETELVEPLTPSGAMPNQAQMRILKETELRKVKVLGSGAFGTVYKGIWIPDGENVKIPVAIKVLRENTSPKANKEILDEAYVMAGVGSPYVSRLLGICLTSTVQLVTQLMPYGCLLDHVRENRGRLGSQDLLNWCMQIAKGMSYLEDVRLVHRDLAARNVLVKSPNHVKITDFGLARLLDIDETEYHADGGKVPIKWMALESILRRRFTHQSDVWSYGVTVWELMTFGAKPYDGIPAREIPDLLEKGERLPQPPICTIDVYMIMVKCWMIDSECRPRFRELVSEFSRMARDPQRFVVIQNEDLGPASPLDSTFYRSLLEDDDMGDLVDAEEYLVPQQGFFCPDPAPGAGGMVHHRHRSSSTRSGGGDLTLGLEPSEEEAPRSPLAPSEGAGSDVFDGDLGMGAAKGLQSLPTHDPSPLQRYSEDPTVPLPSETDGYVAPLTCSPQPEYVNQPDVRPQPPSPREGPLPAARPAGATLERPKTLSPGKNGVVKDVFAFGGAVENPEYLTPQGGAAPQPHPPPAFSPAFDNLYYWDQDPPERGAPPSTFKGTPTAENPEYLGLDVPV

A375 human skin melanoma = assay: In vivo inhibition of tumor growth, A375 model; parameters: species or system athymic nude mice
Excerpt: (§1) Female Nu/Nu˜nuBR athymic nude mice (obtained from Charles River Laboratories), at the age of 5-6 weeks were feed water and an irradiated standard rodent diet ad libitum, and housed in specific pathogen-free conditions, according to the guidelines of the American Association for Accreditation of Lab Animal Care (AALAC).
Mice were implanted subcutaneously in the right hind flank with the various tumor cell suspensions in HBSS containing 10% FBS: A431 human epidermoid carcinoma (4×10^6 cells/mouse), HCT116 human colorectal carcinoma (4×10^6 cells/mouse) and A375 human skin melanoma (2×10^6 cells/mouse).
The A431 epidermoid carcinoma cell line was chosen due to its ability to secrete VEGF in culture and its dependency on VEGF for angiogenesis and growth in vivo (Viloria-Petit A, Crombet T, Jothy S, et al. (2001) Cancer Res 61: 5090-5101). The HCT116 colon carcinoma cell line is dependent on the expression of VEGF to form tumors in nude mice (Okada F, Rak J, St. Croix B, et al. (1998) Proc Natl Acad Sci USA 95: 3609-3614). […]
In the A375 model, Compound 50 was administered at 100 mg/kg, qd. Treatment ended after 28 days, then tumor growth delay was analyzed to day 60.
The tumors were allowed to establish growth for 10 to 14 days. Tumor size was measured every 3 days. […]
(§2) Tumor measurements and body weights were recorded individually (2×/week) during the treatment period of the experiment. Tumors were measured using a digital caliper. Data was recorded/calculated using Study Director software (StudyLog Systems, Inc.) and graphs were created in GraphPad Prizm.
(§3) The volume of each tumor in an animal was calculated according to the formula: (D×d^2)/2, where the diameters were determined from two orthogonal measurements on each tumor. The mean tumor volume was determined by averaging all tumor volumes in each group. The mean body weight was determined by averaging all body weights in each group.
The standard deviation was calculated according to the formula (where x was the tumor volume): [Σx^2−((Σx)2/n)]/n−1 […]

[1] = system: Human Umbilical Vein Endothelial Cells (HUVEC); assay: VEGF Mediated Cell Migration Assay; format: cell-based; details: VEGF 10 ng/mL, VEGF control = 100%
B-Raf = B-Raf (Homo sapiens, UniProt P15056); assay: RAF Kinase Screening Assay (B-Raf); details: Compound 50 tested at 30 μM
B-Raf, sequence (P15056 whole entry, species assumed): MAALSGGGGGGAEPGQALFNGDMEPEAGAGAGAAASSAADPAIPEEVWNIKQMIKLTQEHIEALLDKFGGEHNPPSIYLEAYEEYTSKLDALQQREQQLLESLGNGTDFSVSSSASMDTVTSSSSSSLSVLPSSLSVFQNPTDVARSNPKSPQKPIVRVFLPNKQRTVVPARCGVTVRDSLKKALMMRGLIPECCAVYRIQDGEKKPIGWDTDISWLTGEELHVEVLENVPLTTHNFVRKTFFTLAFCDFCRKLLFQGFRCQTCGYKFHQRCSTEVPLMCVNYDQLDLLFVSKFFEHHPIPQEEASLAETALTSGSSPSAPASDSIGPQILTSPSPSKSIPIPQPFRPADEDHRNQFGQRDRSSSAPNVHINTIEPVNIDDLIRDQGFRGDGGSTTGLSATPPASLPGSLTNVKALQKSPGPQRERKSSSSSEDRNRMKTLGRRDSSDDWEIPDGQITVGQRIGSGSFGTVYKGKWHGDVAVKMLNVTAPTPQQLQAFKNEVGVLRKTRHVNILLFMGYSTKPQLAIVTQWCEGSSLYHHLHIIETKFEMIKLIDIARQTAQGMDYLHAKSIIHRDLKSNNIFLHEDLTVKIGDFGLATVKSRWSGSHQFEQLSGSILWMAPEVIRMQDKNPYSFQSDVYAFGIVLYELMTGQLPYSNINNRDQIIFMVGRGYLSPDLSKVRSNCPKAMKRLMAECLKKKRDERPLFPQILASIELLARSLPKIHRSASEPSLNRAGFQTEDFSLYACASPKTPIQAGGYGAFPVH

[2] = In vivo tumor xenograft models overall (tolerability, body weight, plasma levels)
Experimental: as §1, §2, §3

C-Raf = C-Raf (Homo sapiens, UniProt P04049); assay: RAF Kinase Screening Assay (C-Raf); details: Compound 50 tested at 30 μM
C-Raf, sequence (P04049 whole entry, species assumed): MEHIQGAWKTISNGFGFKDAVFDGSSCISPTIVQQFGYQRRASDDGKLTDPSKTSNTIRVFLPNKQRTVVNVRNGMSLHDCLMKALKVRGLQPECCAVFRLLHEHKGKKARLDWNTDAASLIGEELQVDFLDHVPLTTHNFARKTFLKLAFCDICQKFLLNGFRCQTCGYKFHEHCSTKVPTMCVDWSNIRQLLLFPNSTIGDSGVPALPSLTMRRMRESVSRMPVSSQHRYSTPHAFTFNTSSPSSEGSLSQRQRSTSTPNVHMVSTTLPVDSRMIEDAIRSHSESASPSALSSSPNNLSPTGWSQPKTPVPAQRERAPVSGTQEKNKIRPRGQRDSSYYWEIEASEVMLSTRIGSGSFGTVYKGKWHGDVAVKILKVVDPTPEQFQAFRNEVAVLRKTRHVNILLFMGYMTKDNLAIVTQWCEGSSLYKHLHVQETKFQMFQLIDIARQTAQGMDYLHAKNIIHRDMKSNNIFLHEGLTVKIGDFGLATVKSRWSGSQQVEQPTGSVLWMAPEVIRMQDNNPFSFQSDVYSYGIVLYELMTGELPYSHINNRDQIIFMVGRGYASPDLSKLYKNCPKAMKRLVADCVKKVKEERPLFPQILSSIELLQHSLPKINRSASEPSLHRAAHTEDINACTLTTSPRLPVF

A375 malignant melanoma = assay: Inhibition of in vitro cell proliferation (A375); format: cell-based, human; details: Homo sapiens, A-375, 14C-thymidine incorporation;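 also: cells plated for 24 h, given compound for 24 h, then labelled with 14C-thymidine for another 24 h, with DMSO-only wells as control and counts read by scintillation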
[3] = 100 mg/kg daily, 24-28 days of treatment
[4] = A431 and HCT116 models, continuous administration for 24 days

For `CCNC(=O)Nc1ccc(Oc2ncnc(N)c2/C=N/OC)cc1Cl` [Cpd 50, 1-{4-[6-amino-5-(methoxyimino-methyl)-pyrimidin-4-yloxy]-2-chloro-phenyl}-3-ethyl-urea], the pIC50 (HER2 cytoplasmic domain) was < 4.00, the “tumor growth delay maintained after completion of treatment” value (A375 human skin melanoma; 100 mg/kg qd for 28 days) was 3 weeks and the “body weights of treated animals” value (A375 human skin melanoma; 28 days of continuous dosing, 100 mg/kg) was “comparable to the control group”. The inhibition of growth (A375 human skin melanoma; daily doses of 100 mg/kg, oral, 28 days) was 90%, the “% Stimulation of cell migration” value ([1]; 50 nM) was 82% and the “% Stimulation of cell migration” value ([1]; 100 nM) was 60%. For the same molecule, the “% Stimulation of cell migration” value ([1]; 500 nM) was 59%, the “% Stimulation of cell migration” value ([1]; 1 μM) was 34.5% and the “activity against B-Raf” value (B-Raf) was “no activity; also recorded: not active”. The “inhibition in tumor xenograft models” value ([2]; 10 mg/kg qd) was 28-48%, the plasma levels ([2]; 100 mg/kg daily dosing schedule, oral, mice) was 20 µM and the body weight [2, 3] was “no reduction of body weight”. The tolerability [2, 3] was “well-tolerated”, the treatment-related deaths [2, 3] was “no treatment-related deaths” and the body weights [2, 4] was “comparable with control animals”. For the same molecule, the tolerability [2, 4] was “well tolerated”, the “activity against C-Raf” value (C-Raf) was “no activity; also recorded: not active” and the IC50 (A375 malignant melanoma) was 3.91 µM.
